What was measured:
[1] = urate-lowering therapy ref 6; cited from earlier work
[2] = oral; 7 (100 mg/kg) versus 4 (300 mg/day) or 5 (1000 mg/day) ref 22; cited from earlier work
[3] = molecular target: T1, human uric acid transporter 1 (hURAT1; SLC22A12) (Homo sapiens, UniProt Q96S37); assay: 14C-uric acid uptake inhibition in Xenopus oocytes expressing hURAT1; format: cell-based; conditions: for 14C-urate transport inhibition (in words): test compound at 50 μM
T1 sequence (Q96S37 1-553): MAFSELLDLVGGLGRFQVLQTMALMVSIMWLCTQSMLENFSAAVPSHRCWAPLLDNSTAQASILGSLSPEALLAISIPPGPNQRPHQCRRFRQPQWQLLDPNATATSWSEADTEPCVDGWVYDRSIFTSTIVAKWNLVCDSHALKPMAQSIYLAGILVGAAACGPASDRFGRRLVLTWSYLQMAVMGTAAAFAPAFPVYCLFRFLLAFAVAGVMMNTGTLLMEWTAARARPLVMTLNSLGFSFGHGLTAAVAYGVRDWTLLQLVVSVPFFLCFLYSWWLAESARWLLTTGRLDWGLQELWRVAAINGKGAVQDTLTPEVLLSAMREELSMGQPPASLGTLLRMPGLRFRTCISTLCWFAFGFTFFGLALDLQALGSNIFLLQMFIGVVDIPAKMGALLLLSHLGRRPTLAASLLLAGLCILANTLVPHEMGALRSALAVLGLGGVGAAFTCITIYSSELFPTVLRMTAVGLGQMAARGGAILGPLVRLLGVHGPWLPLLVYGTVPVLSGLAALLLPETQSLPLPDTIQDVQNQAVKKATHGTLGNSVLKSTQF

Compound: Oc1ncnc2[nH]ncc12 [Compound 3, allopurinol]
- patients able to meet treatment goals [1]: about 40%

Compound: CCc1oc2ccccc2c1C(=O)c1cc(Br)c(O)c(Br)c1 [Compound 7, (3,5-dibromo-4-hydroxyphenyl)(2-ethylbenzofuran-3-yl)methanone]
- physiological effect (lowers urate level) compared with 4 and 5 [2]: greater physiological effect

Compound: CCc1oc2ccccc2c1C(=O)c1ccc(OC)cc1 [Compound 12, (2-ethylbenzofuran-3-yl)(4-methoxyphenyl)methanone]
- IC50 [3]: > 50000 nM
- 14C-urate transport inhibition (in words) [3]: weak-to-no

Compound: CCc1oc2ccc(OC)cc2c1C(=O)c1ccc(OC)cc1 [Compound 14, (2-ethyl-5-methoxybenzofuran-3-yl)(4-methoxyphenyl)methanone]
- 14C-urate transport inhibition (in words) [3]: weak inhibition

Compound: CCc1oc2c(OC)cccc2c1C(=O)c1ccc(OC)cc1 [Compound 19, (2-ethyl-7-methoxybenzofuran-3-yl)(4-methoxyphenyl)methanone]
- 14C-urate transport inhibition (in words) [3]: weak inhibition

Compound: CCc1oc2cc(OC)c(Br)cc2c1C(=O)c1cc(Br)c(O)c(Br)c1 [Compound 46, (5-bromo-2-ethyl-6-methoxybenzofuran-3-yl)(3,5-dibromo-4-hydroxyphenyl)methanone]
- IC50 [3]: 1650 ± 120 nM
- inhibition at 50 µM ([3]; read-out: % Inhibition @ 50 μM): 98.1 ± 0.2%

Reference: PMC3124071 (Journal of medicinal chemistry, 2011)
